The subject of series [1] is SK-Br3 breast cancer cells. The series can be described thus: MTT cytotoxicity assay, SK-Br3 breast cancer cells. The series is classed as cell-based, human. To be noted: Homo sapiens, SK-BR-3, 48 h, MTT, 48 h, read-out: IC50, growth inhibition, SK-Br3. Here is the method:
(§1) MCF-7 and MDA-MB-231 breast cancer cells were obtained from the American Type Culture Collection (ATCC) and were routinely grown in Dulbecco's modified Eagle's medium (DMEM, Gibco) containing 10% fetal bovine serum (FBS, Bio-Whittaker), 1% L-glutamine, 1% sodium pyruvate, 50 U/mL penicillin and 50 μg/mL streptomycin. SK-Br3 breast cancer cells were obtained from Eucellbank (Universidad de Barcelona, Spain) and were passaged in McCoy's 5 A medium containing 10% FBS, 1% L-glutamine, 1% sodium pyruvate, 50 U/mL penicillin and 50 μg/mL streptomycin. Non-malignant fibroblasts N-1 were obtained from Eucellbank (Universidad de Barcelona, Spain) and were passaged in DMEM medium containing 10% FBS, 1% L-glutamine, 1% sodium pyruvate, 50 U/mL penicillin and 50 μg/mL streptomycin. The cells remained free of Mycoplasma and were propagated in adherent culture according to established protocols. Cells were maintained at 37° C. in a humidified atmosphere of 95% air and 5% CO2.
(§2) Drug sensitivity was determined using a standard colorimetric MTT (3-4,5-dimethylthiazol-2-yl-2,5-diphenyltetrazolium bromide) assay. Briefly, cells were plated out at a density of 7×10^3 cells/100 μL/well in 96-well microtitre plates and allowed an overnight period for attachment. Then the medium was removed and fresh medium along with various concentrations of the tested compound were added to the cultures for a period of 48 h. Following the treatment, the cells were fed with drug-free medium (100 μL/well) and 10 μL of MTT solution (5 mg/mL; Sigma, St. Louis, Mo.), and the incubation was prolonged for 3 h at 37° C. After carefully removing the supernatants, the MTT-formazan crystals formed by metabolically viable cells were dissolved in dimethyl sulphoxide (100 μL/well) and the absorbance was measured at 570 nm in a multi-well plate reader (Model Anthos Labtec 2010 1.7 reader).
A general note: Tetrazolium assays rely on reduction of a dye to a coloured formazan, in cell work by metabolically active cells.

Series [2] relates to Non-malignant fibroblasts N-1. Kind of series: MTT cytotoxicity assay, non-malignant fibroblasts N-1. The series is classed as cell-based. To be noted: for IC50: Fibroblast, non-malignant fibroblasts, MTT, 48 h, read-out: IC50, growth inhibition, Fibroblasts; for effects in cell death / morphology changes in non-malignant cells: up to doses three-fold their cytotoxic IC50 value in tumoral cells. Here is the method:
as §1, §2

Series [3] deals with MDA-MB-231 breast cancer cells. Kind of series: MTT cytotoxicity assay, MDA-MB-231 breast cancer cells. In kind it is cell-based, human. To be noted: Homo sapiens, MDA-MB-231 cells, 48 h, read-out: IC50, growth inhibition, MDA-MB-231. As for the experimental part:
as §1, §2

Series [4] relates to MCF-7 breast cancer cells. The series can be described thus: MTT cytotoxicity assay, MCF-7 breast cancer cells. The series is classed as cell-based, human. To be noted: Homo sapiens, MCF7, MCF-7 cells, 48 h, read-out: IC50, growth inhibition, MCF-7. As for the experimental part:
as §1, §2

In series [5] the target is T1, FASN (Homo sapiens, UniProt P49327).
T1 construct: endogenous in cells; host or cells: SK-Br3 breast cancer cells
T1 sequence (P49327 whole entry): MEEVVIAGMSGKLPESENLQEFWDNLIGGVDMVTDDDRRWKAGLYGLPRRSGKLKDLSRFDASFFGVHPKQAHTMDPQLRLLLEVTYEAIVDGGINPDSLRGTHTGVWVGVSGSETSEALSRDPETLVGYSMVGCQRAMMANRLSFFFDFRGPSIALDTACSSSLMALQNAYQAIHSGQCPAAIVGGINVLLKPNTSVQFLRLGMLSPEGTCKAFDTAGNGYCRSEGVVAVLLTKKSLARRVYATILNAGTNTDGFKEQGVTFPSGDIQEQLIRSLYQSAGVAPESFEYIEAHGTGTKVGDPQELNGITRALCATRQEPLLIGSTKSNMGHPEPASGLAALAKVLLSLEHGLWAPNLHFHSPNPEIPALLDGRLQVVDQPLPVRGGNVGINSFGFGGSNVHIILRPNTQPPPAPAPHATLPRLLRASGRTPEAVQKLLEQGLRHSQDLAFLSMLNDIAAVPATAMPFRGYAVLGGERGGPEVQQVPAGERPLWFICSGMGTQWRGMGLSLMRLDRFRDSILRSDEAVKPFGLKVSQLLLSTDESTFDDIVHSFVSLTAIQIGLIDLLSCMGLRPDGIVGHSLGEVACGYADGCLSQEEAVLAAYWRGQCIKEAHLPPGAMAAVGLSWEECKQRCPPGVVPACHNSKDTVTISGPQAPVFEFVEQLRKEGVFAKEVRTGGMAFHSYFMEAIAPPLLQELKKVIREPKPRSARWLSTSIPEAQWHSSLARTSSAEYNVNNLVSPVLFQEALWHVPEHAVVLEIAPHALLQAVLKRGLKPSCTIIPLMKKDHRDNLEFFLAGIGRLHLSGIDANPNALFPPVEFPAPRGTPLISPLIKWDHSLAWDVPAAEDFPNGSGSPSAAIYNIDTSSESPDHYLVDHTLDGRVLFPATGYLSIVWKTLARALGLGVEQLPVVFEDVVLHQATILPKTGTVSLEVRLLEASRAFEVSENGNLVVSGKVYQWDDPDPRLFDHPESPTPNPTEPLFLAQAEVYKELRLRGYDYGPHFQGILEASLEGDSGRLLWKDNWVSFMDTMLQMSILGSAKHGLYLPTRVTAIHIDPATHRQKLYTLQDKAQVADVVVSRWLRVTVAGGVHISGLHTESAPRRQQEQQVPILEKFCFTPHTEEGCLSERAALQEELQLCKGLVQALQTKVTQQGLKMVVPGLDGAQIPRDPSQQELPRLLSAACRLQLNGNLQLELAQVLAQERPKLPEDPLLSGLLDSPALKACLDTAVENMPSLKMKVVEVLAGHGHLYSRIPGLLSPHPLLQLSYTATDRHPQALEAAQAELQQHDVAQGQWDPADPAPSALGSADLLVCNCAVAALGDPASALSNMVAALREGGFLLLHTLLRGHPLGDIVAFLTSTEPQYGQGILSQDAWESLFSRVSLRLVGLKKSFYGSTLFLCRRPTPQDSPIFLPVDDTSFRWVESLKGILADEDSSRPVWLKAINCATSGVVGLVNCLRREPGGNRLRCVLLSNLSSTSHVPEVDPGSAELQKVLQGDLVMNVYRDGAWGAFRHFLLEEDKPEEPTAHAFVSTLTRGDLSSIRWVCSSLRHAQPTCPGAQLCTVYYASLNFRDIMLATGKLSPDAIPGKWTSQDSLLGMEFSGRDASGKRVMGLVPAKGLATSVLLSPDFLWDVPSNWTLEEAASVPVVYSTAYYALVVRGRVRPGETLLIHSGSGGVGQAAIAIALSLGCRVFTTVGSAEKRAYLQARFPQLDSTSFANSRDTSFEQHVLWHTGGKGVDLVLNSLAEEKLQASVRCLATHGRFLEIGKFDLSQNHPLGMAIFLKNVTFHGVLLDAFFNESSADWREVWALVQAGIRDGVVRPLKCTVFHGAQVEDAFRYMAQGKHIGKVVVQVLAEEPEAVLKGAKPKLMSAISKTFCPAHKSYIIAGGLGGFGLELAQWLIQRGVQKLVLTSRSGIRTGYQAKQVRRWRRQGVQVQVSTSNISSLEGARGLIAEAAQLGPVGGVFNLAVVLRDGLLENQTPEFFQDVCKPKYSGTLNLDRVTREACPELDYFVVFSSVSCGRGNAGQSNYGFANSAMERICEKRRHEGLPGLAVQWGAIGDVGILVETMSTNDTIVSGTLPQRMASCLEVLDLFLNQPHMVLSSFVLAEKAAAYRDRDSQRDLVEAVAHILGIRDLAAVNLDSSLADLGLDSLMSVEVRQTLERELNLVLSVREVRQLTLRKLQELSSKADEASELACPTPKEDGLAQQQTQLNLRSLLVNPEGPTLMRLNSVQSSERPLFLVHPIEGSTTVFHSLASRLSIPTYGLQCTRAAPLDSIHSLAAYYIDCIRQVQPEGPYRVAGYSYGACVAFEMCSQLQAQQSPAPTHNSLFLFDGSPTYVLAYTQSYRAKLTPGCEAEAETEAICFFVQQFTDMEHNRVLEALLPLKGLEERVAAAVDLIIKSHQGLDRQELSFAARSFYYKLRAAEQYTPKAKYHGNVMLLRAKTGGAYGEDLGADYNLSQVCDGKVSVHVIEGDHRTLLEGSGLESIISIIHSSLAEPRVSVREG
The series can be described thus: Fatty acid synthase activity assay in SK-Br3 cells (NADPH oxidation, particle-free supernatants). In kind it is cell-based. Also on record: FASN activity, % of control cells / FASN activity reduced to / reduction of FASN activity: concentration or dose not given beside the values. The settings on record: for inhibition of FASN activity (in words): SK-Br3 cells treated 6, 12 and 24 hours; for FASN activity reduced to: 12 h exposure. As for the experimental part:
FASN activity of compounds a, b, e, f, h, i, k, m and q was assayed in particle-free supernatants by recording spectrophotometrically at 37° C. (Lambda Bio 20, Perkin Elmer, EUA; using UV Kinlab 2.80.02 software) the decrease of A340nm due to the oxidation of NADPH, as we previously described. After 6, 12, 24 h of exposure to the tested compound, the cells were harvested by treatment with trypsin-EDTA solution, pelleted by centrifugation, washed twice and resuspended in cold PBS. The cells were sonicated during 30 min at 4° C. (PSelecta ultrasons) and centrifuged for 15 min at 4° C. to keep supernatants particle-free. A sample was taken to measure the protein content by a BioRad assay (Bio-Rad Laboratories). One-hundred and twenty micrograms of protein were pre-incubated during 15 min at 37° C. in 0.2 M of potassium phosphate buffer, pH 7.0, for temperature equilibration. The sample was then added to the reaction mixture: 200 mM potassium phosphate buffer, pH 7.0, 1 mM EDTA (Sigma), 1 mM dithiothreitol (Sigma), 30 μM acetyl-CoA (Sigma), 0.24 mM NADPH (Sigma), in 0.3 mL reaction volume were monitored at 340 nm for 3 min to measure the background NADPH oxidation. After the addition of 50 μM of malonyl-CoA (Sigma), the reaction was assayed for additional 10 min to determine FASN-dependent oxidation of NADPH. Rates were corrected for the background rate of NADPH oxidation in the presence of acetyl-CoA. FASN activity was expressed in nmol NADPH oxidized min^−1 mg protein^−1.

14 compounds from patent US20100190856A1, “Novel Polyhydroxylated Compounds as Fatty Acid Synthase (FASN) Inhibitors” (UNIVERSIDAD COMPLUTENSE DE MADRID, priority 2007, published 2010) can be followed below.

“Also recorded” adds a separate entry of the source.

Usually IC50 stands for the concentration needed to halve the response being measured. For `O=C(Oc1ccc(OC(=O)c2ccc(O)c(O)c2)c2ccccc12)c1ccc(O)c(O)c1` [k, 1,4-bis[(3,4-dihydroxybenzoyl)oxy]naphthalene], the IC50 came to 37.5 ± 6.4 µM in series [1], 68 µM in series [2], 27 ± 11.3 µM in series [3] and 49.3 ± 10 µM in series [4]. In addition, the “effects in cell death / morphology changes in non-malignant cells” value in series [2] is reported as “No significant effects”. In addition, in series [5], the “inhibition of FASN activity (in words)” value is “inhibit FASN activity”. In addition, in series [5] (SK-Br3 cells), the “FASN activity reduced to” value came out at 44%.

Usually melting point stands for the temperature of the solid-liquid transition. As for `O=C(Oc1ccc(-c2ccc(OC(=O)c3cc(O)c(Br)c(O)c3)cc2)cc1)c1ccc(O)c(O)c1` [u, 4′[(3,4-dihydroxybenzoyl)oxy]-1,1′-biphenyl-4-yl 4-bromo-3,5-dihydroxybenzoate], the melting point lay within 252 to 254 °C. In series [1], the 50% inhibitory concentration (IC50) was determined as 31 µM.

`O=C(Oc1ccc(OC(=O)c2cc(O)cc(O)c2)c2ccccc12)c1cc(O)cc(O)c1` [j, 1,4-bis[(3,5-dihydroxybenzoyl)oxy]naphthalene] returned a melting point of 201 to 203 °C. Moreover, the IC50 in series [1] was 115 ± 7.1 µM. Further, the IC50 in series [3] was determined as 24 ± 0.9 µM.

Consider `O=C(Oc1ccc(-c2ccc(OC(=O)c3cc(O)nc(O)c3)cc2)cc1)c1cc(O)nc(O)c1` [r, 4,4′-bis[(2,6-dihydroxyisonicotinoyl)oxy]-1,1′-biphenyl], for which the melting point is 285 °C (dec.).

In turn, `O=C(Oc1cccc(OC(=O)c2cc(O)c(O)c(O)c2)c1)c1cc(O)c(O)c(O)c1` [b, 1,3-bis[(3,4,5-trihydroxybenzoyl)oxy]benzene] registered a melting point of 194 to 195 °C. In series [1], the half-inhibitory concentration (IC50) was 42 ± 7.1 µM. For the same compound, the IC50 in series [3] was found to be 173 ± 40.2 µM. The IC50 in series [4] turned out to be 162 ± 17.8 µM.

The compound `O=C(Oc1cc(OC(=O)c2cc(O)cc(O)c2)c2ccccc2c1)c1cc(O)cc(O)c1` [g, 1,3-bis[(3,5-dihydroxybenzoyl)oxy]naphthalene] returned a melting point of 167 to 169 °C. The half-inhibitory concentration (IC50) in series [1] was found to be 107 ± 29.7 µM. In series [3], the IC50 was 121 ± 5.7 µM.

Take `COc1cc(C(=O)Oc2cc(OC(=O)c3cc(O)c(O)c(OC)c3)c3ccccc3c2)cc(O)c1O` [x, 1,3-bis[(3,4-dihydroxy-5-methoxybenzoyl)oxy]naphthalene]: the melting point was 260 °C (dec.). Moreover, the IC50 in series [1] worked out at 3 µM.

As for `O=C(Oc1cccc2c(OC(=O)c3cc(O)c(O)c(O)c3)cccc12)c1cc(O)c(O)c(O)c1` [m, 1,5-bis[(3,4,5-trihydroxybenzoyl)oxy]naphthalene], the half-maximal inhibitory concentration (IC50) in series [1] was 25.7 ± 3 µM; in series [2], more than 150 µM; in series [3], 186 ± 10 µM; in series [4], 69 ± 14 µM. In series [2], the “effects in cell death / morphology changes in non-malignant cells” value is recorded as “No significant effects”. For the same compound, the “inhibition of FASN activity (in words)” value in series [5] is listed as “inhibit FASN activity; also recorded: decreased in a time-dependent manner”. The “FASN activity reduced to” value in series [5] (SK-Br3 cells) turned out to be 77%. Further, the “FASN activity, % of control cells” value in series [5] (SK-Br3 cells, 24 h exposure) was found to be 76%.

On to `O=C(Oc1ccccc1OC(=O)c1cc(O)c(O)c(O)c1)c1cc(O)c(O)c(O)c1` [a, 1,2-bis[(3,4,5-trihydroxybenzoyl)oxy]benzene], for which the melting point worked out at 210 °C. Also, the IC50 in series [1] is 126 ± 5.2 µM. In series [3], the half-maximal inhibitory concentration (IC50) came to 163 ± 5.2 µM. The IC50 in series [4] was found to be 165 ± 8.2 µM.

As for `O=C(Oc1ccc(-c2ccc(OC(=O)c3ccc(O)c(O)c3)cc2)cc1)c1ccc(O)c(O)c1` [t, 4,4′-bis[(3,4-dihydroxybenzoyl)oxy]-1,1′-biphenyl], the melting point was 286 °C (dec.). The 50% inhibitory concentration (IC50) in series [1] was 90 µM.

In the case of `Cc1c(O)cc(C(=O)Oc2ccc(OC(=O)c3cc(O)c(C)c(O)c3)c3c2CCCC3)cc1O` [aa, 1,4-bis[(3,5-dihydroxy-4-methylbenzoyl)oxy]-5,6,7,8-tetrahydronaphthalene], the melting point is 204 °C (dec.). The IC50 in series [1] came out at 49.5 ± 4.9 µM.

In the case of `COc1cc(C(=O)Oc2ccc(-c3ccc(OC(=O)c4ccc(O)c(O)c4)cc3)cc2)cc(O)c1O` [v, 4′[(3,4-dihydroxybenzoyl)oxy]-1,1′-biphenyl-4-yl 3,4-dihydroxy-5-methoxybenzoate], the melting point is 240 °C (dec.). In series [1], the IC50 was less than 1 µM.

Consider `O=C(Oc1cc2c(c(OC(=O)c3cc(O)c(O)c(O)c3)c1)CCCC2)c1cc(O)c(O)c(O)c1` [y, 1,3-bis[(3,4,5-trihydroxybenzoyl)oxy]-5,6,7,8-tetrahydronaphthalene], for which the IC50 in series [1] is 31 ± 3 µM; in series [2] it was more than 150 µM; in series [3] it was 98 ± 11 µM; in series [4], 81 ± 16 µM. In addition, in series [2], the “effects in cell death / morphology changes in non-malignant cells” value is “No significant effects”.

Compound `O=C(Oc1ccc(OC(=O)c2ccccc2)c(-c2ccccc2)c1)c1cc(O)c(O)c(O)c1` [p, 6-(benzoyloxy)-1,1′-biphenyl-3-yl 3,4,5-trihydroxybenzoate] yielded a melting point of 82 to 84 °C. Also, the IC50 in series [1] came to 73.5 ± 4.9 µM. The IC50 in series [3] was more than 150 µM.
